The values below come from US8541588B2, “Sulfonamide derivatives” (Pfizer Limited, priority 2009, dated 2013).

pIC50: −log10 of the molar value. Some results are limits rather than exact numbers.

The IC50 is the concentration at which inhibition is half-maximal. As usually defined, the pIC50 is the negative decadic logarithm of the IC50, by convention in mol/L.

The target in this assay is T1, Nav1.7 (or SCN9A) channel; HEK cells stably transfected with hSCN9A (Homo sapiens, UniProt Q15858).
T1 construct: expressed in transfected cells
T1 sequence (Q15858 whole entry): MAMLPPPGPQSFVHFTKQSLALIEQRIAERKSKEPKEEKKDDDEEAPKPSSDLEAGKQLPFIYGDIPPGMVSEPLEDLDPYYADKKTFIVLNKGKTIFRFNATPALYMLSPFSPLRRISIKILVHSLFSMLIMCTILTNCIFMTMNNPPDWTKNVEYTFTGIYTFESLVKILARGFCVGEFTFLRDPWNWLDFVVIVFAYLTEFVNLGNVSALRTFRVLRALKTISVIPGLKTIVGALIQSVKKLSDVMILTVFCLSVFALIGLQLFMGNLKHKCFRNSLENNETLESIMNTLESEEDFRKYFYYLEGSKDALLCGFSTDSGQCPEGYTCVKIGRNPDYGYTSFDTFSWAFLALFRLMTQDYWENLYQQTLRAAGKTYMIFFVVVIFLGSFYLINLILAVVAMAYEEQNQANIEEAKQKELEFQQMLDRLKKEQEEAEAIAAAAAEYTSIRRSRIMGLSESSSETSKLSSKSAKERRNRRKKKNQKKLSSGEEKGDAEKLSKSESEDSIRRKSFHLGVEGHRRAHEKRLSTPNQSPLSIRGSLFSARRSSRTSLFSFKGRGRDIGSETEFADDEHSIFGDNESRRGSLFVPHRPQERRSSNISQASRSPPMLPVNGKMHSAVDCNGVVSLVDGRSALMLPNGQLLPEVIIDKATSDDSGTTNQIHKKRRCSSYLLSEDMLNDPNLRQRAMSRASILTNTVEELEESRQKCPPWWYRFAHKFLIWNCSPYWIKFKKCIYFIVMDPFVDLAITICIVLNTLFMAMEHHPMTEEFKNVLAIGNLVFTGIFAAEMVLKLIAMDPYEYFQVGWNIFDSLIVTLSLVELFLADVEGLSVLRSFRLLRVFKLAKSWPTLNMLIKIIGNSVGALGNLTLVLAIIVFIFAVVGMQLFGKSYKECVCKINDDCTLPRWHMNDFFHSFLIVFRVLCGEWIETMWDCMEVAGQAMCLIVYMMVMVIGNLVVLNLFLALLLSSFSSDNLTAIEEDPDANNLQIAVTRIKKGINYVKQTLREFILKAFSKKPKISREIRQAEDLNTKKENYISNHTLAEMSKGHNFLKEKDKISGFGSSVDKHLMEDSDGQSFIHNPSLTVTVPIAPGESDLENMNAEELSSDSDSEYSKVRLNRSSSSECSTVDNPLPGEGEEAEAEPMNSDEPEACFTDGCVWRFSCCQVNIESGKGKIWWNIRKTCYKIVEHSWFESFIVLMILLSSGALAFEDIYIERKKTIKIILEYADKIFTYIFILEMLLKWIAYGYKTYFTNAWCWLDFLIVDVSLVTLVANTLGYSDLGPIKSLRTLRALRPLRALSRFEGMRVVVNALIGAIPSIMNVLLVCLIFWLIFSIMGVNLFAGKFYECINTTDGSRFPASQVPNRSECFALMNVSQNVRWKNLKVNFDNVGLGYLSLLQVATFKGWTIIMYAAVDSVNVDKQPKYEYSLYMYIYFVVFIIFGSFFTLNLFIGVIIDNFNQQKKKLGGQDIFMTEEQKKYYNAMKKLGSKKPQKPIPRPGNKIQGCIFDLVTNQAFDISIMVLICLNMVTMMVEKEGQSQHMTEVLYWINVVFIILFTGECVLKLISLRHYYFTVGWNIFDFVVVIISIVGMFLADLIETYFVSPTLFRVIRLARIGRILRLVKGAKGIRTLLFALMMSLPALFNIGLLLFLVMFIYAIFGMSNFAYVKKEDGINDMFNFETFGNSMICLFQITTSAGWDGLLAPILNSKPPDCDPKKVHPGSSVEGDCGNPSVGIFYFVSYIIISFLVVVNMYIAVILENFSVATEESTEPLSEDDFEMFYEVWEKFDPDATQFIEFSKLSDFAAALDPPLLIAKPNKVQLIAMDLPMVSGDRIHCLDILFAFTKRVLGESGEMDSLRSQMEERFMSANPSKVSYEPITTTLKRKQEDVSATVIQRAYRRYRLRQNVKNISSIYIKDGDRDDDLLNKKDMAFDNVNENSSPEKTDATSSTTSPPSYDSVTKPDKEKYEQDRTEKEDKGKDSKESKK
As to the kind of experiment: Nav1.7 block, PatchXpress 7000 automated whole-cell voltage clamp, estimated IC50 (EIC50). It counts as cell-based. The note with it: PatchXpress platform; hSCN9A HEK cells held at V1/2 of inactivation; estimated IC50.
On to `N#Cc1cc(S(=O)(=O)Nc2ccccc2)ccc1Oc1ccccc1-c1ccccc1` [Example 114, 4-(biphenyl-2-yloxy)-3-cyano-N-phenylbenzenesulfonamide], for which the IC50 is reported as above 10 µM.

As to `N#Cc1cc(S(=O)(=O)Nc2cc(C(F)(F)F)ncn2)ccc1Oc1ccccc1-c1ccccc1` [Example 115, 4-(biphenyl-2-yloxy)-3-cyano-N-[6-(trifluoromethyl)pyrimidin-4-yl]benzenesulfonamide], the IC50 is given as above 10 µM.

Take `N#Cc1cc(S(=O)(=O)Nc2ccnc(C(F)(F)F)n2)ccc1Oc1ccccc1-c1ccccc1` [Example 116, 4-(biphenyl-2-yloxy)-3-cyano-N-[2-(trifluoromethyl)pyrimidin-4-yl]benzenesulfonamide]: the pIC50 is 5.51.

As to `N#Cc1cc(S(=O)(=O)Nc2ncc[nH]2)ccc1Oc1ccccc1-c1ccccc1` [Example 117, 4-(biphenyl-2-yloxy)-3-cyano-N-1H-imidazol-2-ylbenzenesulfonamide], the pIC50 was 4.72.

Consider `Cc1nn(C)c(C)c1Cc1ccc(Oc2ccc(S(=O)(=O)Nc3nccs3)cc2F)cc1` [Example 118, 3-fluoro-N-1,3-thiazol-2-yl-4-{4-[(1,3,5-trimethyl-1H-pyrazol-4-yl)methyl]phenoxy}benzenesulfonamide], for which the negative-log IC50 (pIC50) was 4.73.

For `O=S(=O)(Nc1nccs1)c1ccc(Oc2cccc(OCc3ccccc3)c2)c(F)c1` [Example 119, 4-[3-(benzyloxy)phenoxy]-3-fluoro-N-1,3-thiazol-2-ylbenzenesulfonamide], the pIC50 was 4.75.

In the case of `O=S(=O)(Nc1nccs1)c1ccc(Oc2ccc(OCc3ccccc3)c(F)c2)c(F)c1` [Example 120, 4-[4-(benzyloxy)-3-fluorophenoxy]-3-fluoro-N-1,3-thiazol-2-ylbenzenesulfonamide], the pIC50 is 4.43.

As to `O=S(=O)(Nc1nccs1)c1ccc(Oc2ccc(-c3cocn3)cc2)c(F)c1` [Example 121, 3-fluoro-4-[4-(1,3-oxazol-4-yl)phenoxy]-N-1,3-thiazol-2-ylbenzenesulfonamide], the pIC50 is 4.49.

On to `Cc1noc(C)c1Cc1ccc(Oc2ccc(S(=O)(=O)Nc3nccs3)cc2F)cc1` [Example 122, 4-{4-[(3,5-dimethylisoxazol-4-yl)methyl]phenoxy}-3-fluoro-N-1,3-thiazol-2-ylbenzenesulfonamide], for which the negative logarithm of the IC50 (pIC50) is 5.34.

Regarding `Cc1cc(CN2CCCC2)cc(C)c1Oc1ccc(S(=O)(=O)Nc2nccs2)cc1F` [Example 123, 4-[2,6-dimethyl-4-(pyrrolidin-1-ylmethyl)phenoxy]-3-fluoro-N-1,3-thiazol-2-ylbenzenesulfonamide], the negative logarithm of the IC50 (pIC50) is 5.04.

Regarding `O=S(=O)(Nc1nccs1)c1ccc(Oc2ccc(Oc3ccc(F)cc3)cc2)c(F)c1` [Example 124, 3-fluoro-4-[4-(4-fluorophenoxy)phenoxy]-N-1,3-thiazol-2-ylbenzenesulfonamide], the negative-log IC50 (pIC50) is 4.82.

For `O=S(=O)(Nc1nccs1)c1ccc(Oc2ccc(CN3CCC3)c(F)c2)c(F)c1` [Example 125, 4-[4-(azetidin-1-ylmethyl)-3-fluorophenoxy]-3-fluoro-N-1,3-thiazol-2-ylbenzenesulfonamide], the pIC50 was 4.64.

Regarding `O=S(=O)(Nc1nccs1)c1ccc(Oc2cccc(Oc3ccccc3)c2)c(F)c1` [Example 126, 3-fluoro-4-(3-phenoxyphenoxy)-N-1,3-thiazol-2-ylbenzenesulfonamide], the pIC50 is 4.94.

As to `O=S(=O)(Nc1nccs1)c1ccc(Oc2ccc(Oc3ccccc3)cc2)c(F)c1` [Example 127, 3-fluoro-4-(4-phenoxyphenoxy)-N-1,3-thiazol-2-ylbenzenesulfonamide], the concentration for half-maximal inhibition (IC50) is on record as above 10 µM.

For `Cc1cc(-c2ccccc2Oc2ccc(S(=O)(=O)Nc3nccs3)cc2F)sn1` [Example 128, 3-fluoro-4-[2-(3-methylisothiazol-5-yl)phenoxy]-N-1,3-thiazol-2-ylbenzenesulfonamide], the pIC50 is 5.51.

For the compound `Cc1cnsc1-c1ccccc1Oc1ccc(S(=O)(=O)Nc2nccs2)cc1F` [Example 129, 3-fluoro-4-[2-(4-methylisothiazol-5-yl)phenoxy]-N-1,3-thiazol-2-ylbenzenesulfonamide], the negative logarithm of the IC50 (pIC50) was 6.15.

For the compound `Cc1nc(-c2ccccc2Oc2ccc(S(=O)(=O)Nc3nccs3)cc2F)cs1` [Example 130, 3-fluoro-4-[2-(2-methyl-1,3-thiazol-4-yl)phenoxy]-N-1,3-thiazol-2-ylbenzenesulfonamide], the pIC50 was 5.04.

For `O=S(=O)(Nc1nccs1)c1ccc(Oc2ccccc2-c2ccccn2)c(F)c1` [Example 131, 3-fluoro-4-(2-pyridin-2-ylphenoxy)-N-1,3-thiazol-2-ylbenzenesulfonamide], the negative logarithm of the IC50 (pIC50) was 4.92.

For `CCc1nnc(C)n1-c1ccc(Oc2ccc(S(=O)(=O)Nc3nccs3)cc2F)cc1` [Example 132, 4-[4-(3-ethyl-5-methyl-4H-1,2,4-triazol-4-yl)phenoxy]-3-fluoro-N-1,3-thiazol-2-ylbenzenesulfonamide], the pIC50 is 4.76.

Take `O=S(=O)(Nc1nccs1)c1ccc(Oc2ccccc2C2CCCCO2)c(F)c1` (stereo not shown) [Example 133, 3-fluoro-4-[2-(tetrahydro-2H-pyran-2-yl)phenoxy]-N-1,3-thiazol-2-ylbenzenesulfonamide]: the negative logarithm of the IC50 (pIC50) was 4.94.

`N#Cc1cc(S(=O)(=O)Nc2ncc(Cl)s2)ccc1Oc1ccccc1Oc1ccccc1` [Example 134, N-(5-chloro-1,3-thiazol-2-yl)-3-cyano-4-(2-phenoxyphenoxy)benzenesulfonamide]: the pIC50 is 5.42.

Turning to `N#Cc1cc(S(=O)(=O)Nc2ncc(Cl)s2)ccc1Oc1ccccc1Oc1ccncc1` [Example 135, N-(5-chloro-1,3-thiazol-2-yl)-3-cyano-4-[2-(pyridin-4-yloxy)phenoxy]benzenesulfonamide], the negative logarithm of the IC50 (pIC50) is 6.14.

Consider `N#Cc1cc(S(=O)(=O)Nc2ncc(Cl)s2)ccc1Oc1ccccc1OCc1ccccc1` [Example 136, 4-[2-(benzyloxy)phenoxy]-N-(5-chloro-1,3-thiazol-2-yl)-3-cyanobenzenesulfonamide], for which the pIC50 is 5.57.

Consider `Cn1cc(-c2ccc(Cl)cc2)c(Oc2ccc(S(=O)(=O)Nc3ncc(Cl)s3)cc2C#N)n1` [Example 137, 4-{[4-(4-chlorophenyl)-1-methyl-1H-pyrazol-3-yl]oxy}-N-(5-chloro-1,3-thiazol-2-yl)-3-cyanobenzenesulfonamide], for which the negative logarithm of the IC50 (pIC50) was 5.59.

On to `Cn1ncc(-c2ccccc2)c1Oc1ccc(S(=O)(=O)Nc2ncc(Cl)s2)cc1C#N` [Example 138, N-(5-chloro-1,3-thiazol-2-yl)-3-cyano-4-[(1-methyl-4-phenyl-1H-pyrazol-5-yl)oxy]benzenesulfonamide], for which the negative-log IC50 (pIC50) was 4.41.

In the case of `Cc1cn(Cc2ccccc2)nc1Oc1ccc(S(=O)(=O)Nc2ncc(Cl)s2)cc1C#N` [Example 139, 4-[(1-benzyl-4-methyl-1H-pyrazol-3-yl)oxy]-N-(5-chloro-1,3-thiazol-2-yl)-3-cyanobenzenesulfonamide], the pIC50 is 5.30.

For `CC(C)c1nn(-c2ccccc2Cl)cc1Oc1ccc(S(=O)(=O)Nc2ncc(Cl)s2)cc1C#N` [Example 140, 4-{[1-(2-chlorophenyl)-3-isopropyl-1H-pyrazol-4-yl]oxy}-N-(5-chloro-1,3-thiazol-2-yl)-3-cyanobenzenesulfonamide], the negative-log IC50 (pIC50) is 5.47.

Turning to `N#Cc1cc(S(=O)(=O)Nc2ncc(Cl)s2)ccc1Oc1cc(C(F)(F)F)nn1-c1ccccc1` [Example 141, N-(5-chloro-1,3-thiazol-2-yl)-3-cyano-4-{[1-phenyl-3-(trifluoromethyl)-1H-pyrazol-5-yl]oxy}benzenesulfonamide], the pIC50 is 5.91.

Turning to `N#Cc1cc(S(=O)(=O)Nc2ncc(Cl)s2)ccc1Oc1cc(C(F)(F)F)nn1Cc1ccccc1` [Example 142, 4-{[1-benzyl-3-(trifluoromethyl)-1H-pyrazol-5-yl]oxy}-N-(5-chloro-1,3-thiazol-2-yl)-3-cyanobenzenesulfonamide], the negative-log IC50 (pIC50) was 5.58.

On to `Cc1cc(Oc2ccc(S(=O)(=O)Nc3ncc(Cl)s3)cc2C#N)n(C2CCCCC2)n1` [Example 143, N-(5-chloro-1,3-thiazol-2-yl)-3-cyano-4-[(1-cyclohexyl-3-methyl-1H-pyrazol-5-yl)oxy]benzenesulfonamide], for which the IC50 is reported as above 10 µM.

On to `N#Cc1cc(S(=O)(=O)Nc2ncc(Cl)s2)ccc1Oc1ccccc1C1CC1` [Example 144, N-(5-chloro-1,3-thiazol-2-yl)-3-cyano-4-(2-cyclopropylphenoxy)benzenesulfonamide], for which the negative logarithm of the IC50 (pIC50) is 5.86.

Regarding `COc1ccc(-n2cc(Oc3ccc(S(=O)(=O)Nc4ncc(Cl)s4)cc3C#N)c(C(C)C)n2)cc1` [Example 145, N-(5-chloro-1,3-thiazol-2-yl)-3-cyano-4-{[3-isopropyl-1-(4-methoxyphenyl)-1H-pyrazol-4-yl]oxy}benzenesulfonamide], the pIC50 was 5.70.

`N#Cc1cc(S(=O)(=O)Nc2ncc(Cl)s2)ccc1Oc1ccccc1-c1ccccc1` [Example 146, 4-(biphenyl-2-yloxy)-N-(5-chloro-1,3-thiazol-2-yl)-3-cyanobenzenesulfonamide]: the negative-log IC50 (pIC50) was 6.05.

For the compound `O=S(=O)(Nc1ncc(Cl)s1)c1ccc(Oc2ccccc2-c2ccccc2)c(F)c1` [Example 147, 4-(Biphenyl-2-yloxy)-N-(5-chloro-thiazol-2-yl)-3-fluoro-benzenesulfonamide], the negative-log IC50 (pIC50) was 5.82.

With `O=S(=O)(Nc1ncns1)c1ccc(Oc2ccc(CC3CC3)cc2)c(Cl)c1` [Example 148, 3-chloro-4-[4-(cyclopropylmethyl)phenoxy]-N-1,2,4-thiadiazol-5-ylbenzenesulfonamide], the pIC50 is 5.60.

As for `O=S(=O)(Nc1ncns1)c1ccc(Oc2ccc(-c3ccccc3)cc2)c(Cl)c1` [Example 149, 4-(biphenyl-4-yloxy)-3-chloro-N-1,2,4-thiadiazol-5-ylbenzenesulfonamide], the pIC50 was 6.04.

Take `O=S(=O)(Nc1ncns1)c1ccc(Oc2ccccc2-c2ccccc2)c(Cl)c1` [Example 150, 4-(biphenyl-2-yloxy)-3-chloro-N-1,2,4-thiadiazol-5-ylbenzenesulfonamide]: the pIC50 is 6.72.
